The text below walks through data of the SangsterLogP compilation.

For the compound `Cc1nc(OCCO)c(C#N)cc1-c1ccncc1`, the log partition coefficient (logP) stood at 1.83.

Take `COCCOc1ncc(-c2ccncc2)cc1C#N`: the logP was found to be 1.96.

`CCOc1ncc(-c2ccncc2)cc1C#N`: the logP turned out to be 2.59.

On to `COCCOc1nc(C)c(-c2ccncc2)cc1C#N`, for which the logP is 2.4.

Compound `N#Cc1cc(-c2ccncc2)cnc1OCC(O)CO` (centres undefined) came in with a logP of 0.76.

For `N#Cc1cc(-c2ccncc2)cnc1OCCOCCO`, the logP worked out at 1.5.

`COc1ncc(-c2ccncc2)cc1C#N` gave a log partition coefficient (logP) of 2.02.

Compound `Cc1nc(OCCOCCO)c(C#N)cc1-c1ccncc1` registered a logP of 1.81.

With `Cc1nc(OCCO)c(C#N)cc1-c1ccccc1`, the logP stood at 3.23.

In the case of `COCCOc1nc(C)c(-c2ccccc2)cc1C#N`, the logP is 3.74.

Consider `CC(O)COc1ncc(-c2ccncc2)cc1C#N` (centres undefined), for which the logP is 1.65.

As for `COc1nc(C)c(-c2ccncc2)cc1C#N`, the logP stood at 2.41.

Regarding `N#Cc1cc(-c2ccncc2)cnc1Oc1ccccc1`, the logP stood at 3.09.

For `N#Cc1cc(-c2ccncc2)cnc1OCCCO`, the logP stood at 1.63.
